# Data as given in ChEMBL document CHEMBL1201862, “PubChem BioAssay data set” (2004).
#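 Protocol summary: plate cells (96-well), add compound at 5 concentrations, incubate 48 h, interpolate endpoints linearly. GI50 = concentration required for 50% inhibition of growth.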 Activity calls are given as the source filed them. Rule as the data show it: active = GI50 up to about 1.1 µM and inactive = higher.
# Assays:
# Assay in all cases: DTP human tumour cell line panel, 48 h
# 786-0 = system: 786-0
# A498 = system: A498
# A549 = system: A549
# ACHN = system: ACHN
# BT-549 = system: BT-549
# CAKI-1 = system: CAKI-1
# CCRF-CEM = system: CCRF-CEM
# COLO 205 = system: COLO 205
# DU-145 = system: DU-145
# EKVX = system: EKVX
# HCC 2998 = system: HCC 2998
# HCT-116 = system: HCT-116
# HCT-15 = system: HCT-15
# HL-60 = system: HL-60
# HOP-62 = system: HOP-62
# HOP-92 = system: HOP-92
# HT-29 = system: HT-29
# Hs-578T = system: Hs-578T
# IGROV-1 = system: IGROV-1
# K562 = system: K562
# KM12 = system: KM12
# LOX IMVI = system: LOX IMVI
# M14 = system: M14
# MCF7 = system: MCF7
# MDA-MB-231 = system: MDA-MB-231
# MDA-MB-435 = system: MDA-MB-435
# MDA-N = system: MDA-N
# MOLT-4 = system: MOLT-4
# Malme-3M = system: Malme-3M
# NCI-H226 = system: NCI-H226
# NCI-H23 = system: NCI-H23
# NCI-H460 = system: NCI-H460
# NCI-H522 = system: NCI-H522
# NCI/ADR-RES = system: NCI/ADR-RES
# OVCAR-3 = system: OVCAR-3
# OVCAR-4 = system: OVCAR-4
# OVCAR-5 = system: OVCAR-5
# OVCAR-8 = system: OVCAR-8
# PC-3 = system: PC-3
# RPMI-8226 = system: RPMI-8226
# RXF 393 = system: RXF 393
# SF-268 = system: SF-268
# SF-295 = system: SF-295
# SF-539 = system: SF-539
# SK-MEL-28 = system: SK-MEL-28
# SK-MEL-2 = system: SK-MEL-2
# SK-MEL-5 = system: SK-MEL-5
# SK-OV-3 = system: SK-OV-3
# SN12C = system: SN12C
# SNB-19 = system: SNB-19
# SNB-75 = system: SNB-75
# SR = system: SR
# SW-620 = system: SW-620
# T47D = system: T47D
# TK-10 = system: TK-10
# U-251 = system: U-251
# UACC-257 = system: UACC-257
# UACC-62 = system: UACC-62
# UO-31 = system: UO-31
compound,measurement,setting,value
CCN(CC)CCn1ncc2ccc3c(c(=O)c4cccnc4n3CCN(CC)CC)c21,GI50,786-0,438 nM (active)
same,GI50,A498,598 nM (active)
same,GI50,A549,618 nM (active)
same,GI50,ACHN,733 nM (active)
same,GI50,BT-549,2250 nM (inactive)
same,GI50,CAKI-1,3540 nM (inactive)
same,GI50,CCRF-CEM,348 nM (active)
same,GI50,COLO 205,493 nM (active)
same,GI50,DU-145,2410 nM (inactive)
same,GI50,EKVX,1290 nM (inactive)
same,GI50,HCC 2998,750 nM (active)
same,GI50,HCT-116,385 nM (active)
same,GI50,HCT-15,743 nM
same,GI50,HL-60,1090 nM (active)
same,GI50,HOP-62,867 nM (active)
same,GI50,HOP-92,1380 nM (inactive)
same,GI50,HT-29,435 nM (active)
same,GI50,Hs-578T,2170 nM (inactive)
same,GI50,IGROV-1,625 nM (active)
same,GI50,K562,119 nM (active)
same,GI50,KM12,603 nM (active)
same,GI50,LOX IMVI,521 nM (active)
same,GI50,M14,1410 nM (inactive)
same,GI50,MCF7,618 nM (active)
same,GI50,MDA-MB-231,1670 nM (inactive)
same,GI50,MDA-MB-435,655 nM (active)
same,GI50,MDA-N,861 nM (active)
same,GI50,MOLT-4,344 nM (active)
same,GI50,Malme-3M,1750 nM (inactive)
same,GI50,NCI-H226,1700 nM (inactive)
same,GI50,NCI-H23,1290 nM (inactive)
same,GI50,NCI-H460,403 nM (active)
same,GI50,NCI-H522,845 nM (active)
same,GI50,NCI/ADR-RES,1450 nM (inactive)
same,GI50,OVCAR-3,1130 nM (inactive)
same,GI50,OVCAR-4,933 nM (active)
same,GI50,OVCAR-5,1090 nM (active)
same,GI50,OVCAR-8,561 nM (active)
same,GI50,PC-3,986 nM (active)
same,GI50,RPMI-8226,931 nM (active)
same,GI50,RXF 393,670 nM (active)
same,GI50,SF-268,1350 nM (inactive)
same,GI50,SF-295,1300 nM (inactive)
same,GI50,SF-539,589 nM (active)
same,GI50,SK-MEL-28,2050 nM (inactive)
same,GI50,SK-MEL-2,1790 nM (inactive)
same,GI50,SK-MEL-5,1090 nM (active)
same,GI50,SK-OV-3,1160 nM (inactive)
same,GI50,SN12C,621 nM (active)
same,GI50,SNB-19,1970 nM (inactive)
same,GI50,SNB-75,1050 nM (active)
same,GI50,SR,284 nM (active)
same,GI50,SW-620,519 nM (active)
same,GI50,T47D,2280 nM (inactive)
same,GI50,TK-10,2240 nM (inactive)
same,GI50,U-251,597 nM (active)
same,GI50,UACC-257,1880 nM (inactive)
same,GI50,UACC-62,2490 nM (inactive)
same,GI50,UO-31,1500 nM (inactive)
